Measurements reported in US8546343B2, “Aminoglycoside antibiotics targeting bacterial 16S ribosomal RNA” (Eidgenoessische Technische Hochschule Zurich, priority 2007, dated 2013).

Tests used:
[1] = tested on: M. smegmatis ΔrrnB 1408G (16S rRNA position 1408 G, eukaryotic cytosolic ribosomes); assay: MIC, recombinant M. smegmatis with mutant ribosomes 1408G; type: cell-based, Mycobacterium smegmatis; conditions: M. smegmatis ΔrrnB 1408G mutant ribosomes; 72 h at 37° C.
Text: (§1) The strain used for introduction/selection of mutational alterations was a genetically modified derivative of Mycobacterium smegmatis carrying a single functional chromosomal rRNA operon (Sander et al. Mol. Microbiol. 1996, 22: 841-848). This strain, termed M. smegmatis rrn^−, allowed for the selection of mutational rRNA gene alterations using a plasmid carrying the rRNA gene with the respective mutational alteration.)
(§2) The rRNA gene carried on the plasmid encodes either the complete rRNA operon (Prammananan et al. Antimicrob. Agents Chemother. 1999, 43: 447-453) or a non-functional rRNA gene fragment of approximately 1.0 kb (Pfister et al. Antimicrob. Agents Chemother. 2003, 47: 1496-1502). PCR-mutagenesis in vitro was used to generate the mutagenized rRNA gene fragment. In the case of a partial rRNA gene fragment the mutagenized rRNA gene fragment was cloned into vectors pMV261 or pMV361 (Sander et al. Mol. Microbiol. 2002, 46: 1295-1304; Pfister et al. Antimicrob. Agents Chemother. 2003, 47: 1496-1502) to result in vectors carrying a partial rRNA gene fragment of approximately 1.0 kb with the mutational alteration introduced. In the case of plasmids carrying the complete rRNA operon the mutagenized rRNA gene fragment obtained by PCR was cloned into vectors pMV361 rRNA or pMV261 rRNA using appropriate restriction sites (Prammananan et al. Antimicrob. Agents Chemother. 1999, 43: 447-453). Vectors pMV361 rRNA and pMV261 rRNA carried a complete copy of the rRNA operon from M. smegmatis (Sander et al. Mol. Microbiol. 1997, 26: 469-480). Introduction of mutations into the plasmid encoded rRNA was confirmed by sequencing.
(§3) The single rRNA allelic derivative of M. smegmatis, i.e. M. smegmatis rrn, was used for transformation of the plasmids. The strain was made electro-competent and transformed according to standard techniques and as described previously (Sander et al. Mol. Microbiol. 1997, 26: 469-484). Following primary selection, the plasmid-encoded mutational rRNA gene alteration was transferred into the single chromosomal rRNA operon by means of RecA-mediated homologous recombination (Prammananan at al. Antimicrob. Agents Chemother. 1999, 43: 447-453). Introduction of the mutational rRNA gene alteration into the single functional chromosomal rRNA operon by gene conversion was confirmed by sequence determination.
(§4) Ribosomal drug susceptibility was studied by determining the minimal inhibitory concentrations, as described in detail in Pfister et al. 2003 and 2005 (see above).
(§5) The recombinants carrying the respective mutational alterations in the functional rRNA operon were colony-purified and subjected to determinations of minimal inhibitory concentrations (MIC) to determine ribosomal drug susceptibility. Cultures from single colonies were grown in LB medium supplemented with 0.05% Tween 80 and used for MIC tests in a microtiter plate format. Starting cultures contained 200 μl of bacterial cells at an optical density of 0.025 at 600 nm, and the respective drug was added in twofold series of dilution.
(§6) Key nucleotides which distinguish the prokaryotic from the eukaryotic decoding site are 16S rRNA positions 1408 (bacterial ribosome: A, eukaryotic cytosolic ribosomes: G) and 1491 (bacterial ribosomes: G, eukaryotic cytosolic ribosomes: A, eukaryotic mitochondrial ribosome: C).

[2] = tested on: M. smegmatis ΔrrnB (bacterial ribosomes); assay: MIC, recombinant M. smegmatis with bacterial (wild-type) ribosomes; type: cell-based, Mycobacterium smegmatis; conditions: 72 h at 37° C.
Text: as §1, §2, §3, §4, §5, §6

[3] = tested on: M. smegmatis ΔrrnB 1491A (16S rRNA position 1491 A, eukaryotic cytosolic ribosomes); assay: MIC, recombinant M. smegmatis with mutant ribosomes 1491A; type: cell-based, Mycobacterium smegmatis; conditions: M. smegmatis ΔrrnB 1491A mutant ribosomes; 72 h at 37° C.
Text: as §1, §2, §3, §4, §5, §6

[4] = tested on: M. smegmatis ΔrrnB 1491C (16S rRNA position 1491 C, eukaryotic mitochondrial ribosome); assay: MIC, recombinant M. smegmatis with mutant ribosomes 1491C; type: cell-based, Mycobacterium smegmatis; conditions: M. smegmatis ΔrrnB 1491C mutant ribosomes; 72 h at 37° C.
Text: as §1, §2, §3, §4, §5, §6

[5] = tested on: AG019 E. faecalis JH2-2 (APH2″ AAC6′); assay: Standard MIC assay, AG019; type: cell-based, Enterococcus faecalis; conditions: E. faecalis JH2-2 (APH2″ AAC6′)
Experimental: (§7) Selected compounds of the present invention were tested for antibiotic susceptibility using clinical isolates of Staphylococci, Enterococci and Escherichia coli as well as strains carrying defined resistance determinants and compared to well known antibiotics of the state of the art. Drug susceptibility was determined in standard MIC assays, i.e. by determination of the minimal drug concentration required to inhibit bacterial growth in vitro.

[6] = tested on: AG013 Staph. epi. clinical isolate; assay: Standard MIC assay, AG013; type: cell-based, Staphylococcus epidermidis
Experimental: as §7

AG016 S. aureus BM3002 = assay: Standard MIC assay, AG016; type: cell-based, Staphylococcus aureus
Experimental: as §7

AG017 E. faecalis JH2-2 = assay: Standard MIC assay, AG017; type: cell-based, Enterococcus faecalis
Experimental: as §7

[7] = tested on: AG011 Staph. aureus clinical isolate; assay: Standard MIC assay, AG011; type: cell-based, Staphylococcus aureus
Experimental: as §7

[8] = tested on: AG015 S. aureus BM3002 (ANT4′); assay: Standard MIC assay, AG015; type: cell-based, Staphylococcus aureus; conditions: S. aureus BM3002 (ANT4′)
Experimental: as §7

[9] = tested on: AG014 Staph. epi. clinical isolate; assay: Standard MIC assay, AG014; type: cell-based, Staphylococcus epidermidis
Experimental: as §7

With `NC[C@@H]1O[C@H](O[C@H]2[C@@H](O)[C@H](O[C@@H]3[C@@H](O)[C@H](N)C[C@H](N)[C@H]3O[C@H]3O[C@@H]4CO[C@@H](Cc5ccccc5)O[C@H]4[C@H](O)[C@H]3N)O[C@@H]2CO)[C@H](N)[C@@H](O)[C@@H]1O` [Compound 5.24] the “minimal inhibitory concentrations ΔrrnB 1408G” value [1] was 256 µg/mL, the “minimal inhibitory concentrations ΔrrnB” value [2] was 64 µg/mL and the “minimal inhibitory concentrations ΔrrnB 1491A” value [3] was 256 µg/mL. The “minimal inhibitory concentrations ΔrrnB 1491C” value [4] was 128 to 256 µg/mL.
With `NC[C@@H]1O[C@H](O[C@H]2[C@@H](O)[C@H](O[C@@H]3[C@@H](O)[C@H](N)C[C@H](N)[C@H]3O[C@H]3O[C@@H]4CO[C@@H](c5cccc6ccccc56)O[C@H]4[C@H](O)[C@H]3N)O[C@@H]2CO)[C@H](N)[C@@H](O)[C@@H]1O` [Compound 5.19, 4′,6′-O-1-Naphthylideneparomomycin] the “minimal inhibitory concentrations ΔrrnB 1408G” value [1] was 512 µg/mL, the “minimal inhibitory concentrations ΔrrnB” value [2] was 4 to 8 µg/mL and the “minimal inhibitory concentrations ΔrrnB 1491A” value [3] was 256 to 512 µg/mL. For the same molecule, the “minimal inhibitory concentrations ΔrrnB 1491C” value [4] was 256 µg/mL.
`COc1cc([C@@H]2OC[C@H]3O[C@H](O[C@H]4[C@H](O[C@@H]5O[C@H](CO)[C@@H](O[C@H]6O[C@@H](CN)[C@@H](O)[C@H](O)[C@H]6N)[C@H]5O)[C@@H](O)[C@H](N)C[C@@H]4N)[C@H](N)[C@@H](O)[C@@H]3O2)cc(OC)c1OC` [Compound 5.14, 4′,6′-O-3,4,5-Trimethoxybenzylideneparomomycin] was tested, and the “minimal inhibitory concentrations ΔrrnB 1408G” value [1] was >512 µg/mL, the “minimal inhibitory concentrations ΔrrnB” value [2] was 32 to 64 µg/mL and the “minimal inhibitory concentrations ΔrrnB 1491A” value [3] was >512 µg/mL. For the same molecule, the “minimal inhibitory concentrations ΔrrnB 1491C” value [4] was >512 µg/mL.
For `CC1OC[C@H]2O[C@H](O[C@H]3[C@H](O[C@@H]4O[C@H](CO)[C@@H](O[C@H]5O[C@@H](CN)[C@@H](O)[C@H](O)[C@H]5N)[C@H]4O)[C@@H](O)[C@H](N)C[C@@H]3N)[C@H](N)[C@@H](O)[C@@H]2O1` (stereo partly shown) [Compound 5.23, 4′,6′-O-Ethylideneparomomycin], the “minimal inhibitory concentrations ΔrrnB 1408G” value [1] was >512 µg/mL, the “minimal inhibitory concentrations ΔrrnB” value [2] was 32 µg/mL and the “minimal inhibitory concentrations ΔrrnB 1491A” value [3] was >512 µg/mL. For the same molecule, the “minimal inhibitory concentrations ΔrrnB 1491C” value [4] was >512 µg/mL.
`NC[C@@H]1O[C@H](O[C@H]2[C@@H](O)[C@H](O[C@@H]3[C@@H](O)[C@H](N)C[C@H](N)[C@H]3O[C@H]3O[C@@H]4CO[C@@H](c5ccc(F)cc5)O[C@H]4[C@H](O)[C@H]3N)O[C@@H]2CO)[C@H](N)[C@@H](O)[C@@H]1O` [Compound 5.12, 4,6′-O-p-Fluorobenzylideneparomomycin] was tested, and the “minimal inhibitory concentrations ΔrrnB 1408G” value [1] was >512 µg/mL, the “minimal inhibitory concentrations ΔrrnB” value [2] was 2 to 4 µg/mL and the “minimal inhibitory concentrations ΔrrnB 1491A” value [3] was >512 µg/mL. The “minimal inhibitory concentrations ΔrrnB 1491C” value [4] was >512 µg/mL.
`NC[C@@H]1O[C@H](O[C@H]2[C@@H](O)[C@H](O[C@@H]3[C@@H](O)[C@H](N)C[C@H](N)[C@H]3O[C@H]3O[C@@H]4CO[C@@H](c5ccc([N+](=O)[O-])cc5)O[C@H]4[C@H](O)[C@H]3N)O[C@@H]2CO)[C@H](N)[C@@H](O)[C@@H]1O` [Compound 5.6, 4′,6′-O-p-Nitrobenzylideneparomomycin] was tested, and the “minimal inhibitory concentrations ΔrrnB 1408G” value [1] was 512 µg/mL, the “minimal inhibitory concentrations ΔrrnB” value [2] was 4 µg/mL and the “minimal inhibitory concentrations ΔrrnB 1491A” value [3] was >512 µg/mL. For the same molecule, the “minimal inhibitory concentrations ΔrrnB 1491C” value [4] was >512 µg/mL.
With Neomycin [reference compound] the “Minimal inhibitory concentrations AG019” value [5] was >256 µg/mL, the “Minimal inhibitory concentrations AG013” value [6] was 64 to 128 µg/mL and the “Minimal inhibitory concentrations AG016” value (AG016 S. aureus BM3002) was 1 to 2 µg/mL. The “Minimal inhibitory concentrations AG017” value (AG017 E. faecalis JH2-2) was 64 µg/mL, the “Minimal inhibitory concentrations AG011” value [7] was 4 µg/mL and the “Minimal inhibitory concentrations AG015” value [8] was 128 µg/mL. The “Minimal inhibitory concentrations AG014” value [9] was 32 µg/mL.
In the case of `CN(C)c1ccc([C@@H]2OC[C@H]3O[C@H](O[C@H]4[C@H](O[C@@H]5O[C@H](CO)[C@@H](O[C@H]6O[C@@H](CN)[C@@H](O)[C@H](O)[C@H]6N)[C@H]5O)[C@@H](O)[C@H](N)C[C@@H]4N)[C@H](N)[C@@H](O)[C@@H]3O2)cc1` [Compound 5.18, 4′,6′-O-p-Dimethylaminobenzylideneparomomycin], the “minimal inhibitory concentrations ΔrrnB 1408G” value [1] is reported as 256 to 512 µg/mL, the “minimal inhibitory concentrations ΔrrnB” value [2] is reported as 2 to 4 µg/mL and the “minimal inhibitory concentrations ΔrrnB 1491A” value [3] is reported as 256 µg/mL. For the same molecule, the “minimal inhibitory concentrations ΔrrnB 1491C” value [4] was >512 µg/mL.
For `NCC1OC(OC2C(CO)OC(OC3C(O)C(N)CC(N)C3OC3OC(COCc4ccccc4)C(O)C(O)C3N)C2O)C(N)C(O)C1O` (stereo not shown) [Compound 15, 6′-O-Benzylparomomycin], the “minimal inhibitory concentrations ΔrrnB 1408G” value [1] was >512 µg/mL, the “minimal inhibitory concentrations ΔrrnB” value [2] was 32 to 64 µg/mL and the “minimal inhibitory concentrations ΔrrnB 1491A” value [3] was >512 µg/mL. The “minimal inhibitory concentrations ΔrrnB 1491C” value [4] was >512 µg/mL.
With `NC[C@@H]1O[C@H](O[C@H]2[C@@H](O)[C@H](O[C@@H]3[C@@H](O)[C@H](N)C[C@H](N)[C@H]3O[C@H]3O[C@@H]4COC(c5cccs5)O[C@H]4[C@H](O)[C@H]3N)O[C@@H]2CO)[C@H](N)[C@@H](O)[C@@H]1O` (stereo partly shown) [Compound 5.22, 4′,6′-O-2-Thiophenylideneparomomycin] the “minimal inhibitory concentrations ΔrrnB 1408G” value [1] was >512 µg/mL, the “minimal inhibitory concentrations ΔrrnB” value [2] was 8 to 16 µg/mL and the “minimal inhibitory concentrations ΔrrnB 1491A” value [3] was >512 µg/mL. For the same molecule, the “minimal inhibitory concentrations ΔrrnB 1491C” value [4] was >512 µg/mL.
With `COc1ccc([C@@H]2OC[C@H]3O[C@H](O[C@H]4[C@H](O[C@@H]5O[C@H](CO)[C@@H](O[C@H]6O[C@@H](CN)[C@@H](O)[C@H](O)[C@H]6N)[C@H]5O)[C@@H](O)[C@H](N)C[C@@H]4N)[C@H](N)[C@@H](O)[C@@H]3O2)cc1` [Compound 5.2, 4′,6′-O-p-Methoxybenzylideneparomomycin] the “minimal inhibitory concentrations ΔrrnB 1408G” value [1] was >512 µg/mL, the “minimal inhibitory concentrations ΔrrnB” value [2] was 4 µg/mL and the “minimal inhibitory concentrations ΔrrnB 1491A” value [3] was >512 µg/mL. For the same molecule, the “minimal inhibitory concentrations ΔrrnB 1491C” value [4] was >512 µg/mL.
With `NC[C@@H]1O[C@H](O[C@H]2[C@@H](O)[C@H](O[C@@H]3[C@@H](O)[C@H](N)C[C@H](N)[C@H]3O[C@H]3O[C@@H]4CO[C@@H](c5ccc(-c6ccccc6)cc5)O[C@H]4[C@H](O)[C@H]3N)O[C@@H]2CO)[C@H](N)[C@@H](O)[C@@H]1O` [Compound 5.11, 4′,6′-O-p-Phenylbenzylideneparomomycin] the “minimal inhibitory concentrations ΔrrnB 1408G” value [1] was 128 µg/mL, the “minimal inhibitory concentrations ΔrrnB” value [2] was 64 µg/mL and the “minimal inhibitory concentrations ΔrrnB 1491A” value [3] was 64 to 128 µg/mL. For the same molecule, the “minimal inhibitory concentrations ΔrrnB 1491C” value [4] was 64 µg/mL.
`COc1ccc(COC2C(CO)OC(OC3C(N)CC(N)C(O)C3OC3OC(CO)C(OC4OC(CN)C(O)C(O)C4N)C3O)C(N)C2O)cc1` (stereo not shown) [Compound 19e, 4′-p-Methoxybenzylparomomycin] was tested, and the “minimal inhibitory concentrations ΔrrnB 1408G” value [1] was >512 µg/mL, the “minimal inhibitory concentrations ΔrrnB” value [2] was 8 µg/mL and the “minimal inhibitory concentrations ΔrrnB 1491A” value [3] was >512 µg/mL. For the same molecule, the “minimal inhibitory concentrations ΔrrnB 1491C” value [4] was >512 µg/mL.
